Source: publication PMC2481421, “Gene expression response in target organ and whole blood varies as a function of target organ injury phenotype” (Genome Biology, 2008)
Values joined by “and” are separate entries in the source; they are usually repeats but may differ in a detail not shown here. Identical values can stand only once. “Also recorded” adds a separate entry of the source.

Key:
[1] = In-life observations: body weight, gross findings before and at necropsy; format: in vivo, Male Fischer 344/N rats; settings: individual animals
Protocol: Doses were determined with pilot experiments. […] Serum was collected for clinical chemistry.

liver = assay: Liver histopathology (H&E sections of left liver lobe, severity graded) after a single dose; settings: for Primary site of livery injury: rat, single administration
Protocol: The animals were acclimated for 14 days and observed for absence of disease.
Doses were determined with pilot experiments. For each chemical, doses that elicited a sub-toxic ('low'), a moderately toxic ('medium') or a overtly toxic ('high') response 24 hours after treatment were selected. […] For each compound, control animal groups were treated with vehicle alone. All animals were fasted for 12-18 hours prior to exposure. Groups of four to six animals were dosed between 8:30 and 9:30 a.m.; thereafter, feed was provided ad libitum. After 6, 24 or 48 hours of treatment, animals were anesthetized by isoflurane anesthesia. Whole blood was collected via retro-orbital plexus for hematology and gene expression analysis. Serum was collected for clinical chemistry. The animals were euthanized while under anesthesia by cervical dislocation and necropsied within 4 minutes of sacrifice. The left liver lobe was promptly removed and two defined cross sections were placed in 10% neutral buffered formalin for subsequent histopathology.
The cross sections that were fixed by immersion in 10% neutral buffered formalin (see 'In-life studies' section above) were transferred to histology grade alcohol for 18-24 hours after necropsy. Tissues were then processed, embedded in paraffin, sectioned at 5 microns, and stained with hematoxylin and eosin. A pathologist completed the initial microscopic evaluation of each liver sample for a given compound. […] An independent pathology quality assessment review was performed by a second pathologist on the initial histopathological findings.

[2] = I.P., PBS vehicle, 25 mg/kg, 48 hours
[3] = I.P., PBS vehicle, 100 mg/kg, 48 hours
[4] = I.P., PBS vehicle, 400 mg/kg, 48 hours
[5] = Gavage, corn oil, 10 mg/kg, 6 hours
[6] = Gavage, corn oil, 10 mg/kg, 24 hours
[7] = Gavage, corn oil, 10 mg/kg, 48 hours
[8] = Gavage, corn oil, 30 mg/kg, 24 hours
[9] = Gavage, corn oil, 50 mg/kg, 6 hours
[10] = Gavage, corn oil, 50 mg/kg, 24 hours
[11] = Gavage, corn oil, 50 mg/kg, 48 hours
[12] = Gavage, corn oil, 300 mg/kg, 6 hours
[13] = Gavage, corn oil, 300 mg/kg, 24 hours
[14] = Gavage, corn oil, 300 mg/kg, 48 hours

N[C@H]1C(O)O[C@H](CO)[C@H](O)[C@@H]1O (some centres unmarked) [Galactosamine]
Clin/Ob Prior to Necropsy ([1]; 25 mg/kg, I.P., PBS, 6 hours): Normal | Gross Findings ([1]; 25 mg/kg, I.P., PBS, 6 hours): No Gross Findings; also recorded: Liver left lobe mottled, median lobe mottled with dark edges | Clin/Ob Prior to Necropsy ([1]; 25 mg/kg, I.P., PBS, 24 hours): Normal | Final Body Wt. ([1]; 25 mg/kg, I.P., PBS, 24 hours): 288.30 g and 287.60 g and 307.80 g and 298.50 g | Gross Findings ([1]; 25 mg/kg, I.P., PBS, 24 hours): No Gross Findings | Clin/Ob Prior to Necropsy ([1]; 25 mg/kg, I.P., PBS, 48 hours): Normal | Final Body Wt. ([1]; 25 mg/kg, I.P., PBS, 48 hours): 291.10 g and 291.80 g and 294.20 g | Gross Findings ([1]; 25 mg/kg, I.P., PBS, 48 hours): No Gross Findings | Clin/Ob Prior to Necropsy ([1]; 100 mg/kg, I.P., PBS, 6 hours): Normal | Gross Findings ([1]; 100 mg/kg, I.P., PBS, 6 hours): Liver left lobe mottled, median lobe mottled with dark edges; also recorded: No Gross Findings | Clin/Ob Prior to Necropsy ([1]; 100 mg/kg, I.P., PBS, 24 hours): Normal | Final Body Wt. ([1]; 100 mg/kg, I.P., PBS, 24 hours): 270.10 g and 280.10 g and 305.10 g and 290.70 g | Gross Findings ([1]; 100 mg/kg, I.P., PBS, 24 hours): No Gross Findings; also recorded: Liver median lobe mottled | Clin/Ob Prior to Necropsy ([1]; 400 mg/kg, I.P., PBS, 6 hours): Normal | Gross Findings ([1]; 400 mg/kg, I.P., PBS, 6 hours): No Gross Findings; also recorded: Liver left lobe mottled, median lobe mottled with dark edges | Clin/Ob Prior to Necropsy ([1]; 400 mg/kg, I.P., PBS, 24 hours): Normal | Final Body Wt. ([1]; 400 mg/kg, I.P., PBS, 24 hours): 270.50 g and 268.20 g and 301.80 g and 280.20 g | Gross Findings ([1]; 400 mg/kg, I.P., PBS, 24 hours): Liver left lobe with dark edges, median lobe mottled; also recorded: Liver left lobe mottled with dark edges, median lobe mottled; also recorded: No Gross Findings; also recorded: Liver left and median lobes dark and mottled | Clin/Ob Prior to Necropsy [1, 2]: Normal | Final Body Wt. [1, 2]: 287.20 g | Gross Findings [1, 2]: No Gross Findings | Clin/Ob Prior to Necropsy [1, 3]: Normal | Final Body Wt. [1, 3]: 284.20 g and 284.00 g and 295.90 g and 294.00 g | Gross Findings [1, 3]: No Gross Findings | Clin/Ob Prior to Necropsy [1, 4]: Piloerection, Decreased muscle tone; also recorded: Normal | Final Body Wt. [1, 4]: 263.20 g and 263.40 g and 260.90 g and 265.30 g | Gross Findings [1, 4]: Liver left and median lobes pale with mildly rough surface and dark edges; also recorded: Liver left lobe firm and pale with minimally rough surface and dark edges, median lobe firm, pale, and mottled with minimally rough surface; also recorded: Liver left lobe pale, mottled, and firm; median lobe pale with dark areas and firm | biliary hyperplasia (liver; 48 hours): evoked biliary hyperplasia | extent of hepatocellular necrosis, amount of inflammatory cell infiltrates and/or indications of hepatocellular repair (mitosis) across animals (liver; high dose, 48 hour): variability | Primary site of livery injury (liver): Random

C[C@H]1C(=O)O[C@@H]2CCN3CC=C(COC(=O)[C@](C)(O)[C@]1(C)O)[C@H]23 [Monocrotaline]
Clin/Ob Prior to Necropsy [1, 5]: normal | Gross Findings [1, 5]: No Gross Findings | Clin/Ob Prior to Necropsy [1, 6]: normal | Final Body Wt. [1, 6]: 224.70 g and 231.10 g and 243.30 g and 240.90 g | Gross Findings [1, 6]: No Gross Findings; also recorded: Liver - Herniated diaphragmatic nodule | Clin/Ob Prior to Necropsy [1, 7]: normal | Final Body Wt. [1, 7]: 241.60 g and 239.40 g and 266.80 g and 243.40 g | Gross Findings [1, 7]: Liver median lobe dark area 1x1x1 mm; also recorded: Liver median lobe red area 2x2x2 mm; also recorded: No Gross Findings; also recorded: Liver median lobe right side with red area 2x1x1 mm | Clin/Ob Prior to Necropsy [1, 8]: Piloerection | Final Body Wt. [1, 8]: 224.70 g and 224.00 g and 229.60 g and 222.60 g | Gross Findings [1, 8]: Liver left lobe dark and mottled with rough surface, median lobe dark and mottled; also recorded: Liver left and median lobes dark; also recorded: Liver left lobe dark and mottled, median lobe dark; kidney dark | Clin/Ob Prior to Necropsy [1, 9]: normal | Gross Findings [1, 9]: No Gross Findings | Clin/Ob Prior to Necropsy [1, 10]: normal | Final Body Wt. [1, 10]: 223.50 g and 226.80 g and 245.00 g and 241.70 g | Gross Findings [1, 10]: Liver left lobe mottled, median lobe mottled with minimal roughening of surface; also recorded: No Gross Findings; also recorded: Liver median lobe with dark area 2x2x2 mm | Clin/Ob Prior to Necropsy [1, 11]: normal | Final Body Wt. [1, 11]: 231.90 g and 232.10 g and 240.80 g and 232.90 g | Gross Findings [1, 11]: Liver left lobe with red area 10x2x2 mm, median lobe dark and mottled; also recorded: Liver left lobe firm, median lobe left side, ventral surface dark, dorsal surface with red area 2x2x2 mm, right side mottled and firm; also recorded: Liver median lobe right and left side with dark lower edges, dorsal surface mottled; also recorded: Liver median lobe with dark edges, right side dark and mottled, dorsal surface dark and mottled with mild roughening of surface | Clin/Ob Prior to Necropsy [1, 12]: normal | Gross Findings [1, 12]: No Gross Findings; also recorded: Liver, median lobe tan; also recorded: Liver, left lobe mottled, median lobe dark on edges, patchy 2x2x3 mm; also recorded: Liver left and median lobes mottled | Primary site of livery injury (liver): Centrilobular

O=NN1CCOCC1 [N-nitrosomorpholine]
Clin/Ob Prior to Necropsy [1, 5]: Normal | Gross Findings [1, 5]: No Gross Findings | Clin/Ob Prior to Necropsy [1, 6]: Normal | Final Body Wt. [1, 6]: 226.20 g and 225.80 g and 258.80 g and 254.30 g | Gross Findings [1, 6]: No Gross Findings | Clin/Ob Prior to Necropsy [1, 7]: Normal | Final Body Wt. [1, 7]: 238.00 g and 238.70 g and 249.90 g | Gross Findings [1, 7]: No Gross Findings | Clin/Ob Prior to Necropsy [1, 9]: Normal | Gross Findings [1, 9]: No Gross Findings | Clin/Ob Prior to Necropsy [1, 10]: Normal; also recorded: Corneal Opacity, right eye (pre-dose) | Final Body Wt. [1, 10]: 225.10 g and 189.30 g and 237.50 g and 242.10 g | Gross Findings [1, 10]: Liver posterior aspect of left lobe with dark focus (1x1 mm); also recorded: Liver left and median lobes with minimal roughening of surfaces; also recorded: Liver left and median lobes pale; also recorded: Liver left lobe pale and firm, median lobe firm with minimal roughening of surface | Clin/Ob Prior to Necropsy [1, 11]: Normal | Final Body Wt. [1, 11]: 229.00 g and 222.00 g and 233.70 g and 237.20 g | Gross Findings [1, 11]: Liver left and median lobes with mild roughening of surfaces; also recorded: Liver left and median lobes firm with minimal roughening of surfaces; also recorded: No Gross Findings | Clin/Ob Prior to Necropsy [1, 12]: Normal; also recorded: Corneal Opacity, right eye (pre-dose) | Gross Findings [1, 12]: No Gross Findings | Clin/Ob Prior to Necropsy [1, 13]: Normal | Final Body Wt. [1, 13]: 213.90 g and 207.30 g and 219.00 g and 228.80 g | Gross Findings [1, 13]: Liver left lobe mottled with minimal roughening of surface, median lobe with minimal roughening of surface; also recorded: Liver left lobe with minimal roughening of surface, median lobe mottled with minimal roughening of surface; also recorded: Liver left and median lobes with firm with mild roughening of surfaces | Clin/Ob Prior to Necropsy [1, 14]: Ungroomed Appearance | Final Body Wt. [1, 14]: 205.40 g and 202.50 g and 201.50 g and 203.90 g | Gross Findings [1, 14]: Liver left and median lobes dark with mild roughening of surfaces; median lobe with prominent centrilobular pattern; also recorded: Liver left and median lobes dark with mild roughening of surfaces; median lobe with fibrin on surface; also recorded: Liver left and median lobes firm and dark with mild roughening of surfaces | Primary site of livery injury (liver): Centrilobular
